Assay results: patent US20260001853A1, “ASCORBIC ACID DERIVATIVE OR SALT THEREOF, AND COSMETIC THEREOF” (SEIWA KASEI COMPANY, LIMITED, priority 2022, published 2026)

How the values were obtained:
[1] = Stability test (residual rate by HPLC, odor, coloring); assay type: physicochemical; details: 1% aqueous solution; for Coloring / Odor: total score of 10 panelists
Procedure: With a dilute potassium hydroxide aqueous solution, 1% aqueous solution of each test sample was adjusted to pH 6, placed in a 50 mL screw tube, sealed, […], and then subjected to HPLC measurement (using a liquid chromatograph manufactured by Shimadzu Corporation) to determine the residual rate from the peak area. The residual rate, odor, and coloring degree were evaluated according to the following methods and criteria.
Residual rate: • ⊚: 90% or more • ◯: 80% or more, less than 90% • Δ: 60% or more, less than 80% • x: 20% or more, less than 60% • xx: Less than 20%
Evaluation was made by 10 panelists according to the following criteria. • 3: Almost odorless • 2: There is a slight strange odor. • 1: A strong odor is detected.
Based on the evaluation results, the following classification was made: • ⊚: Total score of 10 panelists is 25 or more • ◯: Total score of 10 panelists is 20-24 • Δ: Total score of 10 panelists is 16-19 • x: The total score of 10 panelists is 15 or less
Evaluation was made by 10 panelists according to the following criteria. • 3: Almost no change compared to immediately after preparation. • 2: Color changes compared to immediately after preparation. • 1: Strongly colored compared to immediately after preparation.
Based on the evaluation results, the following classification was made: • ◯: Total score of 10 panelists is 25 or more • Δ: Total score of 10 panelists is 16-24 • x: The total score of 10 panelists is 15 or less

[2] = system: Normal human dermal fibroblasts; experiment: Collagen production promoting effect (ELISA of supernatant); assay type: cell-based; details: amount of collagen produced, % with control group taken as 100%; sample at 10 mmol/L or less, 48 hours, N=3
Procedure: Normal human dermal fibroblasts were prepared in D-MEM containing 5% (v/v) fetal bovine serum to a cell density of […] cells/well, and pre incubated on a 96-well plate for 24 hours. After removing the medium, samples prepared to a predetermined concentration in D-MEM containing 5% (v/v) fetal bovine serum were added to each well and cultured for 48 hours. After completion of the culture, the amount of free collagen in the supernatant was quantified by ELISA method. The measurement was performed with N=3.
(§1) The amount of collagen produced when the samples were measured at a concentration of 10 mmol/L or less was compared with that of the control group, and the results (% values when the control group is taken as 100%) are shown in Tables 15 to 17 based on the following criteria. • <100%: ± • 100-120%: + • 120%: ++

B16 melanoma 4A5 cells = experiment: Melanin production inhibitory effect (theophylline-induced melanin production); assay type: cell-based, mouse; details: melanin production inhibition rate, sample at a concentration of 10 mM or less, 3 days culture, theophylline 1 mmol/L, N=4
Procedure: As a test of the whitening effect, the effect on theophylline-induced melanin production in B16 melanoma 4A5 cells was evaluated for the ascorbic acid derivatives of the present invention according to the following procedure. A similar evaluation was also performed for a known ascorbic acid derivative for comparison. The results are shown in Tables 9 to 11. • (1) B16 mouse melanoma 4A5 cells were seeded in a 48-well plate at a cell density of 8.0×10^3 cells/well. • (2) After culturing for 24 hours in Dulbecco's modified Eagle's medium (manufactured by SIGMA, hereinafter abbreviated as “D-MEM”) containing 10% fetal bovine serum, the medium was replaced with D-MEM containing 10% fetal bovine serum containing theophylline (final concentration 1 mmol/L) and a specified concentration of a sample. • (3) After culturing for 3 days in the presence of the sample, the medium was removed using an aspirator, distilled water was added, and the cells were disrupted by ultrasonication. • (4) The amount of protein was then quantified using a BCA protein assay kit (manufactured by PIERCE), and the amount of melanin produced was measured by an alkali solubilization method. Sodium hydroxide was added to the cell lysate to a final concentration of 1 mol/L, and the solution was dissolved by heating (60° C., 30 minutes), thereafter the absorbance at 405 nm was measured using a microplate reader. The amount of melanin was calculated from a calibration curve prepared using synthetic melanin (SIGMA) as a standard. The amount of melanin per unit protein was calculated by dividing the amount of melanin by the amount of protein. • (5) The melanin production inhibition rate was calculated using the following formula.
[In the formula, A represents the amount of melanin per unit protein (g/g) when the sample was added, B represents the amount of melanin per unit protein (g/g) in the normal group, and C represents the amount of melanin per unit protein (g/g) in the control group.]
The melanin production inhibition rate when the sample was measured at a concentration of 10 mM or less is expressed as follows. The measurement was performed with N=4. • <20%: ± • 20-40%: + • 40-60%: ++ • 60-100%: +++

[3] = system: Normal human dermal fibroblasts (NHDF); experiment: Hyaluronic acid production promoting effect (ELISA of supernatant); assay type: cell-based; details: amount of hyaluronic acid produced, % with control group taken as 100%; sample at 10 mmol/L or less, 48 hours, N=3
Procedure: Normal human dermal fibroblasts (NHDF) were prepared in D-MEM containing 5% (v/v) fetal bovine serum to a cell density of 2.5× 10^4 cells/well, and then pre-incubated on a 96-well plate for 24 hours. After removing the medium, samples prepared in serum-free D-MEM were added to each well and cultured for 48 hours. After the culture was completed, the amount of hyaluronic acid in the supernatant was quantified by ELISA method. The measurement was performed with N=3.
as §1, with “of hyaluronic acid” for “of collagen”, “Tables 18” for “Tables 15”, “to 20” for “to 17”, “• 120-150%:” for “• 120%:”, “++ • 150%: +++” for “++”

[4] = pH 6, stored at 50° C., four weeks later
[5] = pH 6, stored at 50° C., two weeks later

| Structure (SMILES) | Residual rate ([1]; pH 6, 50° C., initial) | Residual rate [1, 4] | Residual rate [1, 5] | Coloring ([1]; pH 6, 50° C., initial) | Odor ([1]; pH 6, 50° C., initial) | Coloring [1, 4] | Odor [1, 4] | Coloring [1, 5] | Odor [1, 5] | Collagen production promoting effect [2] | Melanin production inhibition effect (B16 melanoma 4A5 cells) | Hyaluronic acid production promoting effect [3] |
| --- | --- | --- | --- | --- | --- | --- | --- | --- | --- | --- | --- | --- |
| CC(C)(O)COC1=C(OCC(O)c2ccccc2)C(C(O)CO)OC1=O (stereo not drawn) [Synthesis Example 38, 2-O-(2-hydroxyisobutyl)-3-O-(2-hydroxyethylbenzene) ascorbic acid] | ⊚ (⊚: 90% or more) | ⊚ (⊚: 90% or more) | ⊚ (⊚: 90% or more) | ⊚ | ◯ (◯: Total score of 10 panelists is 20-24) | ◯ (◯: Total score of 10 panelists is 25 or more) | ◯ (◯: Total score of 10 panelists is 20-24) | ◯ (◯: Total score of 10 panelists is 25 or more) | ◯ (◯: Total score of 10 panelists is 20-24) | ++ (120%: ++) | ++ (40-60%: ++) | ++ (120-150%: ++) |
| CC(C)(O)COC1=C(OCC(O)c2ccccc2)C(=O)OC1C(O)CO (stereo not drawn) [Synthesis Example 43, 3-O-(2-hydroxyisobutyl)-2-O-(2-hydroxyethylbenzene) ascorbic acid] | ⊚ (⊚: 90% or more) | ⊚ (⊚: 90% or more) | ⊚ (⊚: 90% or more) | ◯ (◯: Total score of 10 panelists is 25 or more) | ◯ (◯: Total score of 10 panelists is 20-24) | ◯ (◯: Total score of 10 panelists is 25 or more) | ◯ (◯: Total score of 10 panelists is 20-24) | ◯ (◯: Total score of 10 panelists is 25 or more) | ◯ (◯: Total score of 10 panelists is 20-24) | ++ (120%: ++) | ++ (40-60%: ++) | ++ (120-150%: ++) |
| CCCCCCCCCCCCOC1=C(OCC(C)(C)O)C(=O)O[C@@H]1[C@@H](O)CO [Synthesis Example 8, 2-O-(2-hydroxyisobutyl)-3-O-dodecyl ascorbic acid] | ⊚ (⊚: 90% or more) | ⊚ (⊚: 90% or more) | ⊚ (⊚: 90% or more) | ◯ (◯: Total score of 10 panelists is 25 or more) | ◯ (◯: Total score of 10 panelists is 20-24) | ◯ (◯: Total score of 10 panelists is 25 or more) | ◯ (◯: Total score of 10 panelists is 20-24) | ◯ (◯: Total score of 10 panelists is 25 or more) | ◯ (◯: Total score of 10 panelists is 20-24) | ++ (120%: ++) | ++ (40-60%: ++) | +++ (150%: +++) |
| CCCCCCCCCCCCCCC(O)COC1=C(OCC(C)(C)O)[C@@H]([C@@H](O)CO)OC1=O (stereo partly drawn) [Synthesis Example 42, 3-O-(2-hydroxyisobutyl)-2-O-(2-hydroxyhexadecyl) ascorbic acid] | ⊚ (⊚: 90% or more) | ⊚ (⊚: 90% or more) | ⊚ (⊚: 90% or more) | ◯ (◯: Total score of 10 panelists is 25 or more) | ◯ (◯: Total score of 10 panelists is 20-24) | ◯ (◯: Total score of 10 panelists is 25 or more) | ◯ (◯: Total score of 10 panelists is 20-24) | ◯ (◯: Total score of 10 panelists is 25 or more) | ◯ (◯: Total score of 10 panelists is 20-24) | + (100-120%: +) | ++ (40-60%: ++) | +++ (150%: +++) |

The next lines start with results.

| Residual rate ([1]; pH 6, 50° C., initial) | Residual rate [1, 4] | Residual rate [1, 5] | Structure (SMILES) | Coloring ([1]; pH 6, 50° C., initial) | Odor ([1]; pH 6, 50° C., initial) | Coloring [1, 4] | Odor [1, 4] | Coloring [1, 5] | Odor [1, 5] | Collagen production promoting effect [2] | Melanin production inhibition effect (B16 melanoma 4A5 cells) | Hyaluronic acid production promoting effect [3] |
| --- | --- | --- | --- | --- | --- | --- | --- | --- | --- | --- | --- | --- |
| ⊚ (⊚: 90% or more) | ⊚ (⊚: 90% or more) | ⊚ (⊚: 90% or more) | CC(C)(O)COC1=C(OCC(C)(C)O)[C@@H]([C@@H](O)CO)OC1=O [Synthesis Example 17, 2,3-di-O-(2-hydroxyisobutyl) ascorbic acid] | ◯ (◯: Total score of 10 panelists is 25 or more) | ◯ (◯: Total score of 10 panelists is 20-24) | ◯ (◯: Total score of 10 panelists is 25 or more) | ◯ (◯: Total score of 10 panelists is 20-24) | ◯ (◯: Total score of 10 panelists is 25 or more) | ◯ (◯: Total score of 10 panelists is 20-24) | ++ (120%: ++) | + (20-40%: +) | ++ (120-150%: ++) |
| ⊚ (⊚: 90% or more) | ⊚ (⊚: 90% or more) | ⊚ (⊚: 90% or more) | CCC(O)COC1=C(OCC(C)(C)O)[C@@H]([C@@H](O)CO)OC1=O (stereo partly drawn) [Synthesis Example 40, 3-O-(2-hydroxyisobutyl)-2-O-(2-hydroxybutyl) ascorbic acid] | ◯ (◯: Total score of 10 panelists is 25 or more) | ◯ (◯: Total score of 10 panelists is 20-24) | ◯ (◯: Total score of 10 panelists is 25 or more) | ◯ (◯: Total score of 10 panelists is 20-24) | ◯ (◯: Total score of 10 panelists is 25 or more) | ◯ (◯: Total score of 10 panelists is 20-24) | ++ (120%: ++) | ++ (40-60%: ++) | ++ (120-150%: ++) |
| ⊚ (⊚: 90% or more) | ⊚ (⊚: 90% or more) | ⊚ (⊚: 90% or more) | CC(O)COC1=C(OCC(C)(C)O)[C@@H]([C@@H](O)CO)OC1=O (stereo partly drawn) [Synthesis Example 39, 3-O-(2-hydroxyisobutyl)-2-O-(2-hydroxypropyl) ascorbic acid] | ⊚ | ⊚ (⊚: Total score of 10 panelists is 25 or more) | ◯ (◯: Total score of 10 panelists is 25 or more) | ◯ (◯: Total score of 10 panelists is 20-24) | ◯ (◯: Total score of 10 panelists is 25 or more) | ◯ (◯: Total score of 10 panelists is 20-24) | + (100-120%: +) | +++ (60-100%: +++) | +++ (150%: +++) |
